Data: patent publication US20250179193A1, “TREATMENT WITH AN ANTIBODY THAT BINDS EGFR AND CMET” (MERUS N.V., priority 2022, published 2025)

What was measured:
[1] = test system: NSCLC CDX model HCC827-ER1 (EGFR exon 19 deletion E746-A750); details: mouse, in vivo
Method: Body weights were measured twice per week after randomization.

[2] = test system: cMET than EGFR; details: Moores et al. (2016); cited from earlier work

Molecule | absolute body weight [1] | affinity imbalance, greater affinity for cMET than EGFR [2]
C=CC(=O)Nc1cc(Nc2nccc(-c3cn(C)c4ccccc34)n2)c(OC)cc1N(C)CCN(C)C [Osimertinib] | lower compared to Groups 1 and 2 | –
JNJ-61186372: bispecific cMET×EGFR antibody produced by controlled Fab-arm exchange (Moores et al 2016) | – | approximately 40 ×
